One assay deals with T1, human KDR (Homo sapiens, UniProt P35968).
T1 construct: expressed in transfected cells; host or cells: NIH 3T3 cells
Put plainly: Inhibitory activity against KDR phosphorylation (NIH 3T3 cells transfected with human KDR, VEGF). The class given is cell-based. To be noted: VEGF 100 ng/ml. As for the experimental part:
Measurement of Inhibitory Activity Against KDR Phosphorylation
NIH 3T3 cells (Sawano A et al., Cell Growth & Differentiation, 7, 213–221 (1996)) prepared by transfection of human KDR were cultured in a DMEM medium containing 10% FBS (GIBCO BRL) within a 5% carbon dioxide incubator until 50 to 70% confluent. The harvested cells were inoculated into wells of a collagen-type one-coat 96-well flat-bottom plate, each containing the same medium, in an amount of 1.5×10^4 per well, followed by cultivation at 37° C. overnight. The medium was then replaced by a DMEM medium containing 0.1% FBS. A solution of a test compound in dimethyl sulfoxide was added to each well, and the cultivation was carried out at 37° C. for additional one hr. A human recombinant vascular endothelial growth factor (hereinafter abbreviated to “VEGF”) was added to a concentration of 100 ng/ml, and the stimulation of cells was carried out at 37° C. for 2 min. The medium was removed, the cells were washed with phosphate buffered saline (pH 7.4), and 50 μl of a solubilization buffer (20 mM HEPES (pH 7.4), 150 mM NaCl, 0.2% Triton X-100, 10% glycerol, 5 mM sodium orthovanadylate, 5 mM disodium ethylenediaminetetraacetate, and 2 mM Na4P2O7) was then added thereto. The mixture was shaken at 4° C. for 2 hr to prepare a cell extract.
An anti-phospho-tyrosine antibody (PY20; Transduction Laboratories) was immobilized on a microplate for ELISA (Maxisorp; NUNC), and the whole quantity of the cell extract was transferred to the wells, and the immobilized antibody was reacted with the phosphorylated protein at 4° C. overnight. After washing, an anti-KDR antibody (Santa Cruz) was allowed to react at room temperature for one hr, and, further, after washing, a peroxidase-labeled anti-rabbit Ig antibody (Amersham) was allowed to react at room temperature for one hr. After washing, a chromophoric substrate for peroxidase (Sumitomo Bakelite Co., Ltd.) was added thereto and was allowed to react at room temperature. After a suitable level of color development, a reaction termination solution was added to stop the reaction, and the absorbance at 450 nm was measured with a microplate reader. The KDR phosphorylation activity for each well was determined by presuming the absorbance with the addition of VEGF and without the addition of the medicament to be 100% KDR phosphorylation activity and the absorbance without the medicament and VEGF to be 0% KDR phosphorylation activity.
The concentration of the test compound was varied on several levels, the inhibition (%) of KDR phosphorylation was determined for each case, and the concentration of the test compound necessary for inhibiting 50% of KDR phosphorylation (IC50) was calculated.

The target in a further assay is T2, c-kit (Homo sapiens, UniProt P10721).
T2 construct: MO7e (human megakaryocytic leukemia cell line) which had been arrested for 20 hr; endogenous in cells; host or cells: MO7e human megakaryocytic leukemia cell line
Description: Inhibitory activity against c-kit autophosphorylation (MO7e cells, h-SCF). The class given is cell-based. The following applies: for IC50: MO7e cells, read-out: c-kit IC50; for inhibition at 1 µM: Mo7e, figure within parentheses in −( ) or >1000( ), at 1000 nM. In outline: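 First, human megakaryocytic leukemia MO7e cells arrested 20 hr receive compound for one hour. Second, SCF stimulation (50 ng/ml) runs 5 min, after which cells are solubilized. Third, tyrosine-phosphorylated c-kit in the lysate is quantified by sandwich ELISA with absorbance at 450 nm.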

Assay [1] has as its system neointima of balloon-injured left carotid artery. Description: Rat carotid balloon injury model. The following applies: po, 336 h, read-out: I/M ratio, inhibition (%). The class given is in vivo. As for the experimental part:
Rat Carotid Balloon Injury Model
Wistar male rats ([…]) were anesthetized with pentobarbital anesthesia, the right femoral region was incised from the rats, a Fogaty 2F catheter was inserted through the right femoral artery and was led to the left carotid artery, and abrasion was made three times with an expansion diameter of 2.5 mm.
The test compound was suspended in 1% cremophore, and the suspension was orally administered at 0.4 ml/100 g B.W. twice a day through an oral probe for rats for 2 weeks from the day before an operation. On the second week after the operation, the rats were sacrificed by ether. The left carotid artery was removed and was fixed in buffered formalin. Sliced preparations embedded in paraffin were stained with HE and were subjected to image analysis for the measurement of the neointima area (I) and media area (M) in the section of injured blood vessal. I/M was calculated as an index for the evaluation of drug efficacy.

The next assay concerns the target T3, PDGF-Ra (Homo sapiens, UniProt P16234).
T3 construct: host or cells: G-292 human osteosarcoma cells
Description: Inhibitory activity against PDGF-Ra phosphorylation by PDGF-AA stimulation using G292. The class given is cell-based. To be noted: > means inhibition at indicated concentration not more than 50%, < and << not less than 50%, read-out: PDGF (E) IC50. In outline: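 G-292 human osteosarcoma cells in 0.1% FBS medium overnight, given compound for 1 hr at 37° C, then PDGF-AA 50 ng/ml for 5 min. Lysates captured on anti-phosphotyrosine (PY-20) plates and probed with anti-PDGF-Ra plus HRP secondary; absorbance at 450 nm.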

Assay [2] relates to intima of balloon-injured coronary vessel. Put plainly: Porcine coronary balloon injury model. To be noted: 10 mg/kg orally twice a day for 28 days, gelatin capsule, shoats. The class given is in vivo. The method, then: Porcine Coronary Balloon Injury Model Edible shoats (24 to 31 kg) were anesthetized with telazol and xylazine, a balloon catheter was inserted through the femoral artery, and the descending branch in front of the heart on the left and the right rotator branch were injured under vasographing. For 28 days from the operation, the compound of Example 679 was orally administered as a gelatin capsule at a dose of 10 mg/kg twice a day. Further, only a gelatin capsule was administered as a control. In the test, each group consisted of 6 shoats. On the 28th day from the operation, the shoats were sacrificed with pentobarbital and were perfused with buffered formalin, and the heart was then removed. Paraffin embedded preparations of the injured blood vessel portion were sliced and stained with HE, followed by image analysis to measure the intima area (IA), media area (MA), and vessel area (VA), and the fissure length (FL) and vessel perimeter (VP) of the inner elastic plate. IA/MA and (IA/VA)/(FL/VP) were calculated as an index for the evaluation of drug efficacy.

Where [3] appears, read: in vivo, dose: 30 mg/kg, orally twice a day for 2 weeks, Wistar male rats.
Setting [4] is: in vivo, orally twice a day for 2 weeks, Wistar male rats.

Each structure is given as a SMILES string. Like-named read-outs stand apart in the source and are kept apart here.

Usually IC50 stands for the midpoint of a concentration-inhibition curve. One may read the inhibition as how much of the control response was suppressed.

T1 sequence (P35968 20-1356): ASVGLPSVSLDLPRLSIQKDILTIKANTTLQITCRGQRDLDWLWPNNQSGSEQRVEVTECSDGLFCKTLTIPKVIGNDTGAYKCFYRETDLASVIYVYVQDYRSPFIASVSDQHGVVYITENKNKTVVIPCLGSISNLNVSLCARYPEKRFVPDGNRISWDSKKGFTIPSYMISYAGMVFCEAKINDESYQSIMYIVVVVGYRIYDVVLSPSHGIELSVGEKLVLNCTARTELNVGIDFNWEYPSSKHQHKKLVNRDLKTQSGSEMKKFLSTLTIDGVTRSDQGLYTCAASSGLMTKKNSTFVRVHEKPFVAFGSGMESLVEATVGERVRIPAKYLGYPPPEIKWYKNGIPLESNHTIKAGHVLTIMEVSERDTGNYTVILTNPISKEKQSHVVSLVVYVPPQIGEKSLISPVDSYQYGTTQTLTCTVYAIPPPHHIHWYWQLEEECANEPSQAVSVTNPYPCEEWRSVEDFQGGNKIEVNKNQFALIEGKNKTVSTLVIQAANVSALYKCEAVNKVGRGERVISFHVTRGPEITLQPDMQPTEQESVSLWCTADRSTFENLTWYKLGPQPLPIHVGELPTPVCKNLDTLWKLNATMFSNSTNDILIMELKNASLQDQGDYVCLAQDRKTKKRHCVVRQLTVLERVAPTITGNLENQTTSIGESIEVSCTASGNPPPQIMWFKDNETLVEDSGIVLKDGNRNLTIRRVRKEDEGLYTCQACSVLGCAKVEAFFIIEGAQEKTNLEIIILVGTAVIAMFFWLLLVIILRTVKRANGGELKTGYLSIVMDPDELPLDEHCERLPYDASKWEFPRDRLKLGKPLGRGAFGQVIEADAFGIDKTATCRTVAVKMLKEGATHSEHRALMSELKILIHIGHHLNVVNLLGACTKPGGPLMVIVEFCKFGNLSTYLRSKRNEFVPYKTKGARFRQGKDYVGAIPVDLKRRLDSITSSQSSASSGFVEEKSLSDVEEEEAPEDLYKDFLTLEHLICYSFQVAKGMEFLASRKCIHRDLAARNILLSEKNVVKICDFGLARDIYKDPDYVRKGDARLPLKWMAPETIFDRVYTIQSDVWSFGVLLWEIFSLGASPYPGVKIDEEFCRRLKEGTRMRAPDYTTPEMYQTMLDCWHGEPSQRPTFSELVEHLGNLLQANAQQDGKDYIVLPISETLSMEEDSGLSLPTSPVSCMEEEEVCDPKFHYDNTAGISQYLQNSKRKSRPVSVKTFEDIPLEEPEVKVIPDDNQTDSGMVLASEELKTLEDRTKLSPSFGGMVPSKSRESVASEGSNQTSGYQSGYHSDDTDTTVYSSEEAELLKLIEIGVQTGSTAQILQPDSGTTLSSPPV
T3 sequence (P16234 24-1089): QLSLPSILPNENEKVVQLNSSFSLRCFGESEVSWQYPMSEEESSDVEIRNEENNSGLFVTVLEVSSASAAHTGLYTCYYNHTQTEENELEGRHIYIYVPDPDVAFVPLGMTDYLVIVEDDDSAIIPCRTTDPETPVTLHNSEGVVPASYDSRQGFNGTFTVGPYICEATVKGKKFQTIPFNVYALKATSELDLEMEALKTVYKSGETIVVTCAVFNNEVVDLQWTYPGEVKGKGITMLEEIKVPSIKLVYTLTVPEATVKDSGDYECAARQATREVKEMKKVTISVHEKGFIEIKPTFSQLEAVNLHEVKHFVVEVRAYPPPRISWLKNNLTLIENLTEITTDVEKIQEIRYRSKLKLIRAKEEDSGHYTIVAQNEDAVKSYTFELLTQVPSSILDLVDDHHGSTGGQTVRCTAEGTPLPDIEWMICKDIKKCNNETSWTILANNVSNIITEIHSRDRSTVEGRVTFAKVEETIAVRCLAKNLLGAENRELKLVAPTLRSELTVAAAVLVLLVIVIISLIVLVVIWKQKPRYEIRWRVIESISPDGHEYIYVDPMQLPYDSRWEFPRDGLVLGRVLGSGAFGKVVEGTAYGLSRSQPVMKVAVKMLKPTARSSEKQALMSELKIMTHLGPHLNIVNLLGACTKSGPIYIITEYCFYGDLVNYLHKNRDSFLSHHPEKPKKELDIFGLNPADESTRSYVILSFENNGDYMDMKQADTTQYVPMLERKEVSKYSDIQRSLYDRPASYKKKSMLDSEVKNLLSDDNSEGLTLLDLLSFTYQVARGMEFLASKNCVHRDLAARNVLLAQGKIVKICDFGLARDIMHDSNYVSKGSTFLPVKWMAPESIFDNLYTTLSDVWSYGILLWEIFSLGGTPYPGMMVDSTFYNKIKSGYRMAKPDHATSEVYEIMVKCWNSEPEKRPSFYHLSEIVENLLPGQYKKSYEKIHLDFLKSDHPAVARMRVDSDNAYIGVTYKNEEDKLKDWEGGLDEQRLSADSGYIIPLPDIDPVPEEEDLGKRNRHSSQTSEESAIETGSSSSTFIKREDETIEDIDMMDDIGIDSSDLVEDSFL
T2 sequence (P10721 26-976): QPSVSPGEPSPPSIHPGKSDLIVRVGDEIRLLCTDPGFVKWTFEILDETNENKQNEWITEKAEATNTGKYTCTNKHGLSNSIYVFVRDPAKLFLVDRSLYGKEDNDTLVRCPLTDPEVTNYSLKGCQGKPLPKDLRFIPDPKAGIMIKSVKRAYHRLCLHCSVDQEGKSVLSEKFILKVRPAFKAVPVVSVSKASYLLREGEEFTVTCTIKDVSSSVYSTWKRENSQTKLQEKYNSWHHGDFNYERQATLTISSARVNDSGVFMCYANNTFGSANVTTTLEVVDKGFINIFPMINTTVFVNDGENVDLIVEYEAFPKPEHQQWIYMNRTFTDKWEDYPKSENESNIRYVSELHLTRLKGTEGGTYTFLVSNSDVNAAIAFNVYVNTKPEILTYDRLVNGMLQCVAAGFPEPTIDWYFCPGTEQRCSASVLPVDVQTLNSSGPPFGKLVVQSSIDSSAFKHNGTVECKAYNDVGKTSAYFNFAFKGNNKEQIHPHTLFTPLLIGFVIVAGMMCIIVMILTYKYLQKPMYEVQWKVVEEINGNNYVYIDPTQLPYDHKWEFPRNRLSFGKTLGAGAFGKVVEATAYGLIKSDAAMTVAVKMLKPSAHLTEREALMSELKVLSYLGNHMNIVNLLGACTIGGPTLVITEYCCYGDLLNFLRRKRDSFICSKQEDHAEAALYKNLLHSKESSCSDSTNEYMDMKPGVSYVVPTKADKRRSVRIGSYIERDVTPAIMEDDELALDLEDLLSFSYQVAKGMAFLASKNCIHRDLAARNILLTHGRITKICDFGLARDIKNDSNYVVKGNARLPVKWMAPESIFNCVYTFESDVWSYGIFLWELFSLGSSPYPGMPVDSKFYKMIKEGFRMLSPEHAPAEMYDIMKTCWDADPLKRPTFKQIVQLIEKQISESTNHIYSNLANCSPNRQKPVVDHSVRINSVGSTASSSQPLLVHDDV

With `COc1cc2nccc(Oc3ccc(NC(=O)Oc4ccccc4C)cc3)c2cc1OC` [Example 223, 2-Methylphenyl N-{4-[(6,7-dimethoxy-4-quinolyl)oxy]phenyl}carbamate], the figures for the IC50 at human KDR and at c-kit (h-SCF 50 ng/ml) were 38 nM and 101 nM, respectively. The inhibition in vivo at 30 mg/kg in assay [1] is 41%.

For the compound `COc1cc2nccc(Oc3cc(C)c(NC(=O)OC4CCCCCC4)cc3C)c2cc1OC` [Example 287, Cycloheptyl N-{4-[(6,7-dimethoxy-4-quinolyl)oxy]-2,5-dimethylphenyl}carbamate], the IC50 against human KDR was more than 1000 nM; at c-kit (h-SCF 50 ng/ml) it was 228 nM; at PDGF-Ra (Pharmacological Test Example 1), 13 nM. In assay [1] (setting [3]), the inhibition in vivo at 30 mg/kg was determined as 37%.

Regarding `C#CCC(CC)OC(=O)Nc1ccc(Oc2ccnc3cc(OC)c(OC)cc23)cc1` (centres unmarked) [Example 408, 1-Ethyl-3-butynyl N-{4-[(6,7-dimethoxy-4-quinolyl)oxy]phenyl}carbamate], the results for the IC50 on human KDR, on c-kit (50 ng/ml h-SCF) and on PDGF-Ra were 108 nM, 192 nM and less than 10 nM, respectively. Also, the inhibition in vivo at 30 mg/kg in assay [1] (setting [3]) amounted to 50%.

`COc1cc2nccc(Oc3ccc(NC(=O)OCCCN4CCOCC4)cc3)c2cc1OC` [Example 421, 3-Morpholinopropyl N-{4-[(6,7-dimethoxy-4-quinolyl)oxy]phenyl}carbamate]: the IC50 at human KDR was 692 nM; at c-kit (50 ng/ml h-SCF), 34 nM; at PDGF-Ra it was less than 10 nM. Moreover, the inhibition in vivo at 30 mg/kg in assay [1] (setting [3]) was found to be 42%.

In the case of `CCN(CC)CCNC(=S)Nc1ccc(Oc2ncnc3cc(OC)c(OC)cc23)cc1` [Example 516, N-{4-[(6,7-Dimethoxy-4-quinazolinyl)oxy]phenyl}-N′-(2-diethylaminoethyl)thiourea], the IC50 is more than 1000 nM on human KDR and 50 nM on PDGF-Ra. Also, the inhibition at 1 µM on c-kit came to 27%. The inhibition in vivo at 30 mg/kg in assay [1] (setting [3]) stood at 32%.

With `COc1cc2ncnc(Oc3ccc(NC(=O)N[C@H]4CCN(Cc5ccccc5)C4)cc3)c2cc1OC` [Example 567, N-[(3S)-1-Benzyltetrahydro-1H-3-pyrrolyl]-N′-{4-[(6,7-dimethoxy-4-quinazolinyl)oxy]phenyl}urea], the IC50 is more than 1000 nM against human KDR, 118 nM at c-kit (50 ng/ml h-SCF) and 21 nM at PDGF-Ra. Further, the inhibition in vivo at 10 mg/kg in assay [1] (setting [4]) turned out to be 24%.

Consider `COc1cc2nccc(Oc3ccc(NC(=O)NC4CCN(Cc5ccccc5)CC4)cc3)c2cc1OC` [Example 590, N-{4-[(6,7-Dimethoxy-4-quinolyl)oxy]phenyl}-N′-[4-(N-benzyl)piperidinyl]urea], for which the IC50 at human KDR was more than 1000 nM; on c-kit (50 ng/ml h-SCF) it was 296 nM; on PDGF-Ra it was 54 nM. In addition, the inhibition in vivo at 30 mg/kg in assay [1] (setting [3]) was found to be 86%.

With `COc1cc2nccc(Oc3ccc(NC(=S)NC(=O)c4ccccc4C)cc3)c2cc1OC` [Example 614, N-{4-[(6,7-Dimethoxy-4-quinolyl)oxy]-phenyl}-N′-(2-methylbenzoyl)thiourea], the concentration for half-maximal inhibition (IC50) is 47 nM against human KDR, 434 nM on c-kit (50 ng/ml h-SCF) and less than 10 nM at PDGF-Ra. Moreover, the inhibition in vivo at 30 mg/kg in assay [1] (setting [3]) was 92%.

As to `COc1cc2nccc(Oc3ccc(NC(=S)NC(=O)Cc4ccccc4)cc3F)c2cc1OC` [Example 615, N-{4-[(6,7-Dimethoxy-4-quinolyl)oxy]-3-fluorophenyl}-N′-(2-phenylacetyl)thiourea], the IC50 was determined as 37 nM against human KDR, 125 nM at c-kit (50 ng/ml h-SCF) and 17 nM at PDGF-Ra. Also, the inhibition in vivo at 30 mg/kg in assay [1] (setting [3]) is 43%.

In the case of `CCN(CC)CCNC(=O)Nc1ccc(Oc2ccnc3cc(OC)c(OC)cc23)cc1` [Example 622, N-[2-(Diethylamino)ethyl]-N′-{4-[(6,7-dimethoxy-4-quinolyl)oxy]phenyl}urea], the IC50 against human KDR is more than 1000 nM; at c-kit (50 ng/ml h-SCF), 355 nM; at PDGF-Ra it was 11 nM. In addition, the inhibition in vivo at 30 mg/kg in assay [1] (setting [3]) was found to be 38%.

Turning to `CCN(CC)CCNC(=O)Nc1ccc(Oc2ncnc3cc(OC)c(OC)cc23)cc1[N+](=O)[O-]` [Example 647, N-[2-(Diethylamino)ethyl]-N′-{4-[(6,7-dimethoxy-4-quinazolinyl)oxy]-2-nitrophenyl}urea], the IC50 against human KDR came to 599 nM; at c-kit (50 ng/ml h-SCF), 712 nM; on PDGF-Ra, 13 nM. In addition, in assay [1] (setting [4]), the inhibition in vivo at 10 mg/kg stood at 32%.

Turning to `COc1cc2ncnc(Oc3ccc(NC(=O)NCCN4CCCCC4)c([N+](=O)[O-])c3)c2cc1OC` [Example 679, N-{4-[(6,7-Dimethoxy-4-quinazolinyl)oxy]-2-nitrophenyl}-N′-(2-piperidinoethyl)urea], the IC50 against human KDR was 323 nM; on c-kit (50 ng/ml h-SCF), 337 nM; on PDGF-Ra, less than 10 nM. The inhibition in vivo at 10 mg/kg in assay [1] (setting [4]) worked out at 54%. In addition, the “(IA/VA)/(FL/VP) inhibition (%)” value in assay [2] is listed as 47 (p < 0.001) %. For the same compound, the “IA/MA inhibition (%)” value in assay [2] was 36 (p < 0.05) %.

As to `CCCCN(CCCC)CCNC(=O)Nc1ccc(Oc2ncnc3cc(OC)c(OC)cc23)cc1[N+](=O)[O-]` [Example 687, N-[2-(Dibutylamino)ethyl]-N′-{4-[(6,7-dimethoxy-4-quinazolinyl)oxy]-2-nitrophenyl}urea], the values for the IC50 at human KDR and on PDGF-Ra were 176 nM and 26 nM, respectively. At c-kit, the inhibition at 1 µM turned out to be 34%. Also, in assay [1] (setting [4]), the inhibition in vivo at 10 mg/kg came to 17%.

The record behind these values is patent US7135466B2 (Kirin Beer Kabushiki Kaisha, priority 1999, dated 2006).
